From patent US7319000B1, “Compositions and methods for eliciting immune or anti-infective responses” (priority 1992, dated 2008)
Where two headings read alike, the source gives them in different places. Ends that are not written are not given here.

How the values were obtained:
3A9 target cells (H-2k) = format: in vivo, Balb/c mice; details: effector cells: No Treatment
[1] = system: HIV-1 IIIB infection of human cells; format: cell-based
[2] = system: spleen cells (CTL response to R15K); experiment: CTL activity of spleen cells after a single id footpad injection (FIG. 4)
[3] = system: HIV-1 infection of primary human T cells; experiment: HIV-1 infection of primary human T cells, reverse transcriptase assay; format: cell-based; details: peptide at 1 μg/ml; IIIB strain; RT activity after 9 days; FIG. 8

| Compound | % RT INHIBITION [1] [%] | further results |
| --- | --- | --- |
| TYQRTRALVTG [Peptide B106, free synthetic peptide from Influenza virus nucleoprotein (aa 147-158)] |  | % Specific Lysis (3A9 target cells (H-2k); target 3A9 (MHC-mis-matched, H-2k), E:T 80:1): 0%; % Specific Lysis (3A9 target cells (H-2k); target 3A9 (MHC-mis-matched, H-2k), E:T 160:1): 0%; % Specific Lysis (3A9 target cells (H-2k); target 3A9 + B106, E:T 20:1): 0%; % Specific Lysis (3A9 target cells (H-2k); target 3A9 + B106, E:T 40:1): 0%; % Specific Lysis (3A9 target cells (H-2k); target 3A9 + B106, E:T 80:1): 0%; % Specific Lysis (3A9 target cells (H-2k); target 3A9 + B106, E:T 160:1): 0% |
| NNTRKSITKGPGRVIYATGQIIGD [Peptide D26, V3 loop peptide, strain RF] | 72.2 |  |
| CRIKQIINMWQGVGKAMYA [Peptide C19A] |  | CTL-inducing activity of helper T-cell peptide injected alone [2]: lacked CTL-inducing activity |
| SITKGPGRVIYATGQ [Peptide D28, V3 loop peptide, strain RF] | 0 |  |
| GIAIGPGRTLYAREK [Peptide D27, V3 loop peptide, strain NY-5] | 0 |  |
| RIHIGPGRAFYTTKN [Peptide D24, V3 loop peptide, strain MN] | 22.1 |  |
| SIRIGPGKVFTAKGG [Peptide D31, V3 loop peptide, strain Z3] | 0 |  |
| RIHIGPGRAFFTTKN [Peptide D40, V3 loop peptide, strain MN(Y-F)] | 62.8 |  |
| SIYIGPGRAFHTTGR [Peptide D32, V3 loop peptide, strain SF2] | 0 |  |
| SIHIGPGRAFYATGD [Peptide D30, V3 loop peptide, strain SC] | 54.3 |  |
| YNKRKRIHIGPGRAFYTTKNNIGC [Peptide D23, V3 loop peptide, strain MN] | 98.8 |  |
| CC[C@H](C)[C@H](NC(=O)[C@@H](NC(=O)[C@@H](NC(=O)[C@H](Cc1ccccc1)NC(=O)[C@H](C)NC(=O)[C@H](CCCNC(=N)N)NC(=O)CNC(=O)[C@@H]1CCCN1C(=O)CNC(=O)[C@H](CCCNC(=N)N)NC(=O)[C@H](CCC(N)=O)NC(=O)[C@@H](NC(=O)[C@@H](N)CCCNC(=N)N)[C@@H](C)CC)C(C)C)[C@@H](C)O)C(=O)NCC(=O)N[C@@H](CCCCN)C(=O)O [Peptide R15K] |  | effect of anti-CD4 MAbs plus complement, or complement alone, on CTL cytotoxicity (P815 target cells (H-2d); effectors from mice immunized with monomeric peptide, FIG. 3A): no significant effect; effect of anti-CD8 MAbs and rabbit complement on CTL cytotoxicity (P815 target cells (H-2d); effectors from mice immunized with monomeric peptide, peptide treated or env expressing targets, FIG. 3A): abolished the cytotoxicity |
| STPIGLGQALYTTRI [Peptide D37, V3 loop peptide, strain JY1] | 0 |  |
| SISIGPGRAFFATTD [Peptide D34, V3 loop peptide, strain Z321] | 0 |  |
| RAFVTIGK [Peptide R8K] |  | inhibition of HIV-1 infection of primary human T cells [3]: 66% |
| GIHFGPGQALYTTGI [Peptide D33, V3 loop peptide, strain MAL] | 0 |  |
| RIHIGPGARFLTTKN [Peptide D39, V3 loop peptide, strain MN(Y-L)] | 73.8 |  |
| RTPTGLGQSLYTTRS [Peptide D38, V3 loop peptide, strain ELI] | 33.7 |  |
| HGEFAPGNYPALWSYA [Peptide B105] |  | in vivo CTL response against unmodified free synthetic peptide (P815 target cells (H-2d); same immunization protocol as Example 5): successfully generated |
